Results on 25 compounds are retold here after patent US11174233B1, “Anti-cancer compounds having oxazolone derivation” (King Abdulaziz University, priority 2019, dated 2021).

In series [1] the test system is MCF-7 (breast) cancer cells. Put plainly: SRB cytotoxicity assay against MCF7. It is filed as cell-based, human. The conditions noted are these: 72 h treatment. The procedure:
(§1) MCF-7 (breast) and PC3 (prostate) cancer cells were each grown in RPMI-1640 medium supplemented with 10% heat inactivated FBS, 50 units/mL of penicillin, and […] of streptomycin. The cultures were maintained at 37° C. in a humidified atmosphere containing 5% CO2. The cells were maintained as “monolayer culture” by serial sub-culturing.
(§2) Cytotoxicity was determined using SRB method as previously described by Skehan et al. [Skehan P.; Storeng R.; Scudiero D.; Monks A.; McMahon J.; al., V. D. e., New colorimetric cytotoxicity assay for anticancer drug screening. […] Exponentially growing cells were collected using 0.25% Trypsin-EDTA and seeded in 96-well plates at 1000-2000 cells/well in RPMI-1640 supplemented medium. After 24 h, cells were incubated for 72 h with various concentrations of the tested compounds. Following 72 h treatment, the cells would be fixed with 10% trichloroacetic acid for 1 h at 4° C. Wells were stained for 10 min at room temperature with 0.4% SRB dissolved in 1% acetic acid. The plates were air dried for 24 h and the dye was solubilized with Tris-HCl for 5 min on a shaker at 1600 rpm. The optical density (OD) of each well was measured spectrophotometrically at 564 nm with an ELISA microplate reader (ChroMate-4300, FL, USA). The IC50 values were calculated according to the equation for Boltzman sigmoidal concentration—response curve using the nonlinear regression fitting models (Graph Pad, Prism Version 5).

Series [2] deals with PC3 (prostate) cancer cells. The series can be described thus: SRB cytotoxicity assay against PC3. The conditions noted are these: 72 h treatment. It is filed as cell-based, human. The procedure:
as §1, §2
On the technique in general: The SRB assay estimates cell density from bound dye.

Usually IC50 stands for the concentration needed to halve the response being measured. High values mean weaker potency, low ones greater potency. As for `CN(Cc1ccccc1)C(=O)Cc1ccc(NC(=O)/C(=C\c2ccc(Cl)cc2)NC(=O)c2ccccc2)cc1` [KIM-2245V, (E)-N-(3-((4-(2-(benzyl(methyl)amino)-2-oxoethyl)phenyl)amino)-1-(4-chlorophenyl)-3-oxoprop-1-en-2-yl)benzamide], the IC50 in series [1] (Homo sapiens) and in series [2] (Homo sapiens) was > 100 µM in each case.

As usually defined, the melting point is the temperature, or range, at which the solid turns liquid. Compound `O=C(Cc1ccc(N2C(=O)/C(=C/c3ccc(Cl)cc3)N=C2c2ccccc2)cc1)NCc1ccccc1` [KIM-221C, (Z)—N-benzyl-2-(4-(4-(4-chlorobenzylidene)-5-oxo-2-phenyl-4,5-dihydro-1H-imidazol-1-yl)phenyl)acetamide] registered a melting point of 218 to 220 °C.

As for `O=C(Cc1ccc(NC(=O)/C(=C\c2ccccc2)NC(=O)c2ccccc2)cc1)NCc1ccccc1` [KIM-211V, (E)-N-(3-((4-(2-(benzylamino)-2-oxoethyl)phenyl)amino)-3-oxo-1-phenylprop-1-en-2-yl) benzamide], the IC50 in series [1] (Homo sapiens) and in series [2] (Homo sapiens) was > 100 µM each time.

Regarding `O=C(Cc1ccc(NC(=O)C(=Cc2ccc(Cl)cc2)NC(=O)c2ccccc2)cc1)NCc1ccccc1` (stereo in doubt) [KIM-221V, (E)-N-(3-((4-(2-(benzylamino)-2-oxoethyl)phenyl)amino)-1-(4-chlorophenyl)-3-oxoprop-1-en-2-yl)benzamide], the IC50 is 3.12 µM in series [1] (Homo sapiens) and 4.08 µM in series [2] (Homo sapiens).

Take `CC(=O)N/C(=C/c1ccccc1)C(=O)Nc1ccc(CC(=O)NCc2ccccc2)cc1` [KIM-111V, (E)-2-acetamido-N-(4-(2-(benzylamino)-2-oxoethyl)phenyl)-3-phenylacrylamide]: the melting point was 197 °C. For the same compound, in series [1] (Homo sapiens), the IC50 is > 100 µM. Also, in series [2] (Homo sapiens), the IC50 was > 100 µM.

Take `CC1=N/C(=C\c2ccccc2)C(=O)N1c1ccc(CC(=O)NCc2ccccc2)cc1` [KIM-111C, (Z)—N-benzyl-2-(4-(4-benzylidene-2-methyl-5-oxo-4,5-dihydro-1H-imidazol-1-yl)phenyl)acetamide]: the melting point was in the range of 164 to 165 °C.

Turning to `O=C(Cc1ccc(NC(=O)/C(=C\c2ccc(Cl)cc2)NC(=O)c2ccccc2)cc1)NCc1cccc(F)c1` [KIM-2250V, (E)-N-(1-(4-chlorophenyl)-3-((4-(2-((3-fluorobenzyl)amino)-2-oxoethyl)phenyl)amino)-3-oxoprop-1-en-2-yl)benzamide], the IC50 in series [1] (Homo sapiens) and in series [2] (Homo sapiens) was > 100 µM throughout.

As for `O=C(Cc1ccc(NC(=O)/C(=C\c2ccc(Cl)cc2)NC(=O)c2ccccc2)cc1)NCCc1ccccc1` [KIM-2246V, (E)-N-(1-(4-chlorophenyl)-3-oxo-3-((4-(2-oxo-2-(phenethylamino)ethyl)phenyl)amino)prop-1-en-2-yl)benzamide], the IC50 in series [1] (Homo sapiens) and in series [2] (Homo sapiens) was > 100 µM throughout.

As to `COc1cc(/C=C(/NC(=O)c2ccccc2)C(=O)Nc2ccc(CC(=O)NCc3ccccc3)cc2)ccc1O` [KIM-231V, (E)-N-(3-((4-(2-(benzylamino)-2-oxoethyl)phenyl)amino)-1-(4-hydroxy-3-methoxyphenyl)-3-oxoprop-1-en-2-yl)benzamide], the IC50 in series [1] (Homo sapiens) and in series [2] (Homo sapiens) was > 100 µM in each case.

`CC1=N/C(=C\c2ccc(Cl)cc2)C(=O)N1c1ccc(CC(=O)NCc2ccccc2)cc1` [KIM-121C, (Z)—N-benzyl-2-(4-(4-(4-chlorobenzylidene)-2-methyl-5-oxo-4,5-dihydro-1H-imidazol-1-yl)phenyl)acetamide] returned a melting point of 209 to 211 °C. In series [2] (Homo sapiens), this compound displayed an IC50 of 6.86 µM.

The compound `COc1ccc(/C=C2\N=C(c3ccccc3)N(c3ccc(CC(=O)NCc4ccccc4)cc3)C2=O)cc1` [KIM-261C, (Z)—N-benzyl-2-(4-(4-(4-methoxybenzylidene)-5-oxo-2-phenyl-4,5-dihydro-1H-imidazol-1-yl)phenyl)acetamide] showed a melting point of 193 °C.

For `O=C(Cc1ccc(NC(=O)/C(=C\c2ccc(Cl)cc2)NC(=O)c2ccccc2)cc1)NCc1ccc(F)cc1` [KIM-2248V, (E)-N-(1-(4-chlorophenyl)-3-((4-(2-((4-fluorobenzyl)amino)-2-oxoethyl)phenyl)amino)-3-oxoprop-1-en-2-yl)benzamide], the IC50 was 89.6 µM in series [1] (Homo sapiens) and 85.1 µM in series [2] (Homo sapiens).

`CC(=O)N/C(=C/c1ccc(Cl)cc1)C(=O)Nc1ccc(CC(=O)NCc2ccccc2)cc1` [KIM-121V, (E)-2-acetamido-N-(4-(2-(benzylamino)-2-oxoethyl)phenyl)-3-(4-chlorophenyl)acrylamide]: the IC50 was > 100 µM in series [1] (Homo sapiens) and 57.3 µM in series [2] (Homo sapiens).

Take `CC(NC(=O)Cc1ccc(NC(=O)/C(=C\c2ccc(Cl)cc2)NC(=O)c2ccccc2)cc1)c1ccccc1` (stereo not shown) [KIM-2247V, (E)-N-(1-(4-chlorophenyl)-3-oxo-3-((4-(2-oxo-2-((1-phenylethyl)amino)ethyl)phenyl)amino)prop-1-en-2-yl)benzamide]: the half-maximal inhibitory concentration (IC50) in series [1] (Homo sapiens) and in series [2] (Homo sapiens) was > 100 µM throughout.

Take `O=C(Cc1ccc(N2C(=O)/C(=C/c3ccccc3)N=C2c2ccccc2)cc1)NCc1ccccc1` [KIM-211C, (Z)—N-benzyl-2-(4-(4-benzylidene-5-oxo-2-phenyl-4,5-dihydro-1H-imidazol-1-yl)phenyl)acetamide]: the melting point lay in the range of 218 to 219 °C.

Take `Cc1cc(F)ccc1/C=C(/NC(=O)c1ccccc1)C(=O)Nc1ccc(CC(=O)NCc2ccccc2)cc1` [KIM-2101V, (E)-N-(3-((4-(2-(benzylamino)-2-oxoethyl)phenyl)amino)-1-(4-fluoro-2-methylphenyl)-3-oxoprop-1-en-2-yl)benzamide]: the IC50 in series [1] (Homo sapiens) and in series [2] (Homo sapiens) was > 100 µM in each case.

Consider `COc1cc(/C=C2\N=C(C)N(c3ccc(CC(=O)NCc4ccccc4)cc3)C2=O)ccc1O` [KIM-131C, (Z)—N-benzyl-2-(4-(4-(4-hydroxy-3-methoxybenzylidene)-2-methyl-5-oxo-4,5-dihydro-1H-imidazol-1-yl)phenyl)acetamide], for which the figures for the IC50 in series [1] (Homo sapiens) and in series [2] (Homo sapiens) were 9.48 µM and 5.83 µM, respectively.

As to `COc1ccc(/C=C(/NC(C)=O)C(=O)Nc2ccc(CC(=O)NCc3ccccc3)cc2)cc1` [KIM-161V, (E)-2-acetamido-N-(4-(2-(benzylamino)-2-oxoethyl)phenyl)-3-(4-methoxyphenyl) acrylamide], the values for the IC50 in series [1] and in series [2] were 44.3 µM and 41.1 µM, respectively.

Turning to `COc1cc(/C=C2\N=C(c3ccccc3)N(c3ccc(CC(=O)NCc4ccccc4)cc3)C2=O)ccc1O` [KIM-231C, (Z)—N-benzyl-2-(4-(4-(4-hydroxy-3-methoxybenzylidene)-5-oxo-2-phenyl-4,5-dihydro-1H-imidazol-1-yl)phenyl)acetamide], the melting point was 109 to 112 °C.

`O=C(Cc1ccc(NC(=O)/C(=C\c2ccc(Cl)cc2)NC(=O)c2ccccc2)cc1)NCc1ccc(-c2ccccc2)cc1` [KIM-2249V, (E)-N-(3-((4-(2-(([1,1′-biphenyl]-4-ylmethyl)amino)-2-oxoethyl)phenyl)amino)-1-(4-chlorophenyl)-3-oxoprop-1-en-2-yl)benzamide]: the IC50 in series [1] (Homo sapiens) came to 87.5 µM; in series [2] (Homo sapiens) it was 92.2 µM.

As for `COc1ccc(CNC(=O)Cc2ccc(NC(=O)/C(=C\c3ccc(Cl)cc3)NC(=O)c3ccccc3)cc2)cc1` [KIM-2216V, (E)-N-(1-(4-chlorophenyl)-3-((4-(2-((4-methoxybenzyl)amino)-2-oxoethyl)phenyl)amino)-3-oxoprop-1-en-2-yl)benzamide], the IC50 in series [1] (Homo sapiens) and in series [2] (Homo sapiens) was > 100 µM each time.

Turning to `COc1ccc(/C=C(/NC(=O)c2ccccc2)C(=O)Nc2ccc(CC(=O)NCc3ccccc3)cc2)cc1` [KIM-261V, (E)-N-(3-((4-(2-(benzylamino)-2-oxoethyl)phenyl)amino)-1-(4-methoxyphenyl)-3-oxoprop-1-en-2-yl)benzamide], the IC50 in series [1] (Homo sapiens) and in series [2] (Homo sapiens) was > 100 µM throughout.

Regarding `O=C(Cc1ccc(NC(=O)/C(=C\c2ccc(Cl)cc2)NC(=O)c2ccccc2)cc1)NCc1ccco1` [KIM-2230V, (E)-N-(1-(4-chlorophenyl)-3-((4-(2-((furan-2-ylmethyl)amino)-2-oxoethyl)phenyl)amino)-3-oxoprop-1-en-2-yl)benzamide], the values for the IC50 in series [1] (Homo sapiens) and in series [2] (Homo sapiens) were > 100 µM and 97.8 µM, respectively.

In the case of `COc1cc(/C=C(/NC(C)=O)C(=O)Nc2ccc(CC(=O)NCc3ccccc3)cc2)ccc1O` [KIM-131V, (E)-2-acetamido-N-(4-(2-(benzylamino)-2-oxoethyl)phenyl)-3-(4-hydroxy-3-methoxyphenyl) acrylamide], the results for the IC50 in series [1] and in series [2] were 53.5 µM and 61.3 µM, respectively.

Turning to `O=C(Cc1ccc(NC(=O)/C(=C\c2ccc(Cl)cc2)NC(=O)c2ccccc2)cc1)Nc1ccccc1` [KIM-22101V, (E)-N-(1-(4-chlorophenyl)-3-oxo-3-((4-(2-oxo-2-(phenylamino)ethyl)phenyl)amino)prop-1-en-2-yl)benzamide], the IC50 in series [1] (Homo sapiens) and in series [2] (Homo sapiens) was > 100 µM throughout.
